What was measured:
[1] = tested on: human embryonic stem cell derived neural stem cells (NSCs); experiment: Neural stem cell proliferation assay (neurogenesis assay, ATP levels by CellTiterGlo); type: cell-based; conditions: 96 h, concentration at which 150% activity of control (100%) is reached, NSC proliferation, ATP levels after 4 days incubation, dose response 8 μM to 8 nM
Method: Neural Stem Cell Proliferation Assay
Neurogenic properties of small molecules are determined based on the proliferation of human embryonic stem cell derived neural stem cells (NSCs) which were derived via a dual smad inhibition as previously described (Chambers, S. M., et al., Highly efficient neural conversion of human ES and iPS cells by dual inhibition of SMAD signaling, Nature biotechnology, 2009. 27(3): p. 275-80.)
Compounds respond is measured by the increase in cells based on ATP levels (Promega:CellTiterGlo®) after an incubation period of 4 days.
NSCs are thawed and expanded over 3 passages. On the 14th day, NSCs are seeded in Polyornithin/Laminin coated 384 well plates at a cell density of 21′000 cells/cm^2 in a media volume of 38 μl. 4 hours after cell seeding, compound solutions are added at a volume of 2 μl. Stock solutions of the compounds (water, 5% DMSO) are diluted to obtain a dose response (11 points, dilution factor is 2), ranging from 8 μM to 8 nM. Controls are run to consistently determine the neurogenic properties of the cells:
Negative (neutral) control is cell culture Media (final DMSO concentration: 0.25%).
1. cell culture Media+100 ng/ml FGF2 (final DMSO concentration: 0.1%)
2. cell culture Media+20 ng/ml EGF (final DMSO concentration: 0.1%)
3. cell culture Media+100 ng/ml Wnt3a (final DMSO concentration: 0.1%)
After 4 days incubation at 37° C., 5% CO2, the amount of ATP per well is quantified. The ATP concentration is proportional to the cell number. ATP is quantified by using the Promega CellTiterGlo® kit. The CellTiterGlo® reagents contain a cell lysis buffer, a thermo stable luciferase (UltraGlo™ recombinant luciferase), magnesium and luciferin. Luciferin reacts with ATP producing oxyluciferin, AMP and light. The luminescence signal is proportional to the ATP content.
The value of negative (neutral) control is determined for each assay plate by taking the average of 16 negative control wells. The neurogenic compound response is calculated for each compound as (compound/Negative Control)*100.
The values of EC150 from the dose response curve are determined for each test compound. The EC150 is the compound concentration at which 150% activity of control (100%) is reached.

SMILES: Cc1c2n(c3c(C)cc(C#N)cc13)CCCNC2=O [Example 35, 7,11-Dimethyl-1-oxo-2,3,4,5-tetrahydro-[1,4]diazepino[1,2-a]indole-9-carbonitrile]
- EC (150% of control) [1]: 3.19 µM
- melting point: 255 °C

SMILES: COc1cc(CC(C)C)c2c(c1)cc1n2CCNC1=O [Example 36, 8-Methoxy-6-(2-methylpropyl)-3,4-dihydro-2H-pyrazino[1,2-a]indol-1-one]
- EC (150% of control) [1]: 4.1 µM
- melting point: 175 °C

SMILES: CC(C)Cc1cc(OC(F)(F)F)cc2cc3n(c12)CCNC3=O [Example 37, 6-(2-Methylpropyl)-8-(trifluoromethoxy)-3,4-dihydro-2H-pyrazino[1,2-a]indol-1-one]
- EC (150% of control) [1]: 0.89 µM
- melting point: 166 °C

SMILES: Cc1c2n(c3c(CC(C)C)cc(Cl)cc13)CCCNC2=O [Example 38, 9-Chloro-11-methyl-7-(2-methylpropyl)-2,3,4,5-tetrahydro-[1,4]diazepino[1,2-a]indol-1-one]
- EC (150% of control) [1]: 0.37 µM
- melting point: 176 °C

SMILES: Cc1c2n(c3c(C)cc(Cl)cc13)CCCNC2=O [Example 39, 9-Chloro-7,11-dimethyl-2,3,4,5-tetrahydro-[1,4]diazepino[1,2-a]indol-1-one]
- EC (150% of control) [1]: 0.36 µM
- melting point: 198 °C

SMILES: CC(C)Cc1cc(C#N)cc2cc3n(c12)CCCNC3=O [Example 40, 7-(2-Methylpropyl)-1-oxo-2,3,4,5-tetrahydro-[1,4]diazepino[1,2-a]indole-9-carbonitrile]
- EC (150% of control) [1]: 0.55 µM
- melting point: 199 °C

SMILES: Cc1c2n(c3c(N4CCOCC4)cc(C#N)cc13)CCNC2=O [Example 41, 10-Methyl-6-morpholin-4-yl-1-oxo-3,4-dihydro-2H-pyrazino[1,2-a]indole-8-carbonitrile]
- EC (150% of control) [1]: 0.092 µM
- melting point: 276 °C

SMILES: Cc1c2n(c3c(N4CCS(=O)(=O)CC4)cc(C#N)cc13)CCCNC2=O [Example 42, 7-(1,1-Dioxo-1,4-thiazinan-4-yl)-11-methyl-1-oxo-2,3,4,5-tetrahydro-[1,4]diazepino[1,2-a]indole-9-carbonitrile]
- EC (150% of control) [1]: 0.077 µM
- melting point: 393 °C

SMILES: N#Cc1cc(N2CCS(=O)(=O)CC2)c2c(c1)cc1n2CCCNC1=O [Example 43, 7-(1,1-Dioxo-1,4-thiazinan-4-yl)-1-oxo-2,3,4,5-tetrahydro-[1,4]diazepino[1,2-a]indole-9-carbonitrile]
- EC (150% of control) [1]: 0.98 µM
- melting point: 404.5 °C

SMILES: Cc1c2n(c3c(N4CCOCC4)cc(C#N)cc13)CCCNC2=O [Example 44, 11-Methyl-7-morpholin-4-yl-1-oxo-2,3,4,5-tetrahydro-[1,4]diazepino[1,2-a]indole-9-carbonitrile]
- EC (150% of control) [1]: 0.046 µM
- melting point: 227 °C

SMILES: N#Cc1cc(N2CCOCC2)c2c(c1)cc1n2CCCNC1=O [Example 45, 7-Morpholin-4-yl-1-oxo-2,3,4,5-tetrahydro-[1,4]diazepino[1,2-a]indole-9-carbonitrile]
- EC (150% of control) [1]: 0.24 µM
- melting point: 221 °C

SMILES: N#Cc1cc(N2CCOCC2)c2c(c1)cc1n2CCNC1=O [Example 46, 6-Morpholin-4-yl-1-oxo-3,4-dihydro-2H-pyrazino[1,2-a]indole-8-carbonitrile]
- EC (150% of control) [1]: 0.04 µM
- melting point: 280 °C

— patent US9586966B2, “Piperazino[1,2-a]indol-1-ones and [1,4]diazepino[1,2-a]indol-one” (Hoffmann-La Roche Inc., priority 2013, dated 2017)
